# Counter-ions that a name gives are not always drawn.
# Tests used:
# [1] = Measurement of concentration of compound in rat plasma; format: in vivo; details: oral 10 mg/kg; for concentration at 0.25 h: after 0.25 hours; for concentration at 1 h: after 1 hour; for concentration at 4 h: after 4 hours
# Method: Each of the test compounds was dissolved or suspended in methyl cellulose and the resulting solution or suspension was orally administered to rats at a dosage of 10 mg/kg and blood was collected after 0.25 hours, 1 hour and 4 hours. The concentration in plasma in each of the compounds was measured by HPLC.
# [2] = system: collagen production induced by TGF-β (NHDF cells); test: Inhibitory effect on collagen production induced by TGF-β, [3H] proline uptake (NHDF cells); format: cell-based, human; details: Homo sapiens, NHDF, TGF-β1 3 ng/ml
# Method: (§1) As an index of collagen production, the uptake of [^3H] proline was measured.
# (§2) Using a 96-well microplate, normal human skin derived fibroblast (NHDF, 10^4/well) or human embryonic lung fibroblast (TIG-3, 10^4/well) were cultured in a 10% fetal calf serum (FCS)-containing Dulbecco's modified Eagle medium (DMEM) for one day. After removing the culture supernatant, the cells were washed once with a 0.1% bovine serum albumin (BSA)-containing DMEM medium and then cultured in the 0.1% bovine serum albumin (BSA)-containing DMEM medium for one day. After adding each of the test compounds in each concentration (1, 3, 10 μM), the cells were cultured and, after adding TGF-β1 (3 ng/ml) and [^3H] proline (18.5 kBq/well), the cells were further cultured for additional one day.
# (§3) After removing the culture supernatant, the cells were washed twice with a phosphate buffer solution (PBS) and dissolved with 0.3M NaOH and 1% sodium dodecylsulfate (SDS), and then each protein fraction was precipitated with trichloroacetic acid (TCA) After the precipitate was filtered through a glass filter (GF/B) and washed, the quantity of [^3H] proline on the glass filter was measured by a liquid scintillation counter. The number of cells was measured by a cell growth measuring kit (XTT, Roche) and the uptake of [^3H] proline was corrected by the number of cells. Inhibitory ratio was calculated as compared with the case where a difference between the uptake of [^3H] proline with or without TGF-β1.
# [3] = system: collagen production induced by TGF-β (TIG-3 cells); test: Inhibitory effect on collagen production induced by TGF-β, [3H] proline uptake (TIG-3 cells); format: cell-based; details: Homo sapiens, TGF-β1 3 ng/ml
# Method: as §1, §2, §3
Structure (SMILES),concentration at 0.25 h [1] [ng/mL],concentration at 1 h [1] [ng/mL],concentration at 4 h [1] [ng/mL],inhibition at 1 µM [2] [%],inhibition at 3 µM [2] [%],inhibition at 10 µM [2] [%],inhibition at 3 µM [3] [%],inhibition at 10 µM [3] [%]
"Cn1c(-c2ccccc2)c(/C=C/C(=O)N2CCc3ccccc3C2)c2cccnc21 [Example 104, 2-[(2E)-3-(1-methyl-2-phenyl-1H-pyrrolo[2,3-b]pyridin-3-yl)prop-2-enoyl]-1,2,3,4-tetrahydroisoquinoline hydrochloride]",14 to 19,44 to 71,25 to 32,–,–,–,–,–
"COc1cc2c(cc1OC)C(C)N(C(=O)/C=C/c1c(-c3ccccc3)n(C)c3ncccc13)CC2 (centres unmarked) [Example 3, 6,7-dimethoxy-1-methyl-2-[(2E)-3-(1-methyl-2-phenyl-1H-pyrrolo[2,3-b]pyridin-3-yl)prop-2-enoyl]-1,2,3,4-tetrahydroisoquinoline hydrochloride]",120 to 660,370 to 640,260 to 310,65,105,143,–,–
"Cc1ccc2c(c1)c(C(=O)N1CCN(c3cnc(C(=O)NCc4c(C)noc4C)cn3)CC1)c(-c1ccccc1)n2C [Example 32, 5-{4-[(1,5-dimethyl-2-phenyl-1H-indol-3-yl)carbonyl]piperazin-1-yl}-N-[(3,5-dimethylisoxazol-4-yl)methyl]pyrazine-2-carboxamide]",–,–,–,–,–,–,62,117
"Cn1c(-c2ccccc2)c(/C=C/C(=O)N2CCC(n3c(=O)[nH]c4ccccc43)CC2)c2cccnc21 [Example 29, 1-{1-[(2E)-3-(1-methyl-2-phenyl-1H-pyrrolo[2,3-b]pyridin-3-yl)prop-2-enoyl]piperidin-4-yl}-1,3-dihydro-2H-benzimidazol-2-one hydrochloride]",330 to 940,280 to 1100,170 to 710,64,72,123,–,–
"Cc1ccc2c(c1)c(C(=O)N1CCN(c3ccc(-c4nnn(C)n4)cn3)CC1)c(-c1ccccc1)n2C [Example 26, 1,5-dimethyl-2-phenyl-3-[{4-[5-(2-methyl-2H-tetrazol-5-yl)pyridin-2-yl]piperazin-1-yl}carbonyl]-1H-indole]",230 to 800,130 to 300,0 to 92,–,–,–,–,–
"Cc1ccc2c(c1)c(C(=O)N1CCN(c3cnc(C(=O)NCCc4scnc4C)cn3)CC1)c(-c1ccccc1)n2C [Example 5, 5-{4-[(1,5-dimethyl-2-phenyl-1H-indol-3-yl)carbonyl]piperazin-1-yl}-N-[2-(4-methyl-1,3-thiazol-5-yl)ethyl]pyrazine-2-carboxamide trihydrochloride]",1400 to 2300,520 to 720,87 to 160,40,43,88,–,–
"Cc1ccc2c(c1)c(C(=O)N1CCN(c3cnc(C(=O)NCCc4scnc4C)cn3)CC1)c(-c1ccccc1)n2C [Example 80, 5-{4-[(1,5-dimethyl-2-phenyl-1H-indol-3-yl)carbonyl]piperazin-1-yl}-N-[2-(4-methyl-1,3-thiazol-5-yl)ethyl]pyrazine-2-carboxamide]",–,–,–,–,–,–,105,149
"CO[C@H]1Cc2ccccc2[C@H]1NC(=O)/C=C/c1c(-c2ccccc2)n(C)c2ncccc12 [Example 4, (2E)-N-[(1R,2S)-2-methoxy-2,3-dihydro-1H-inden-1-yl]-3-(1-methyl-2-phenyl-1H-pyrrolo[2,3-b]pyridin-3-yl)acrylamide hydrochloride]",390 to 500,490 to 590,180 to 290,41,70,138,–,–
"CC1c2cc3c(cc2CCN1C(=O)/C=C/c1c(-c2ccccc2)n(C)c2ncccc12)OCO3 (centres unmarked) [Example 28, 5-methyl-6-[(2E)-3-(1-methyl-2-phenyl-1H-pyrrolo[2,3-b]pyridin-3-yl)prop-2-enoyl]-5,6,7,8-tetrahydro[1,3]dioxolo[4,5-g]isoquinoline hydrochloride]",71 to 170,400 to 550,320 to 460,31,40,92,–,–
"Cc1ncsc1CCNC(=O)c1cnc(N2CCN(C(=O)c3c(-c4ccccc4)n(C)c4ncccc34)CC2)cn1 [Example 27, 5-{4-[(1-methyl-2-phenyl-1H-pyrrolo[2,3-b]pyridin-3-yl)carbonyl]piperazin-1-yl}-N-[2-(4-methyl-1,3-thiazol-5-yl)ethyl]pyrazine-2-carboxamide dihydrochloride]",2400 to 4100,1500 to 1900,–,25,35,42,–,–
"Cc1ccc2c(c1)c(C(=O)N1CCN(c3cnc(C(=O)NCCc4ccc(O)cc4)cn3)CC1)c(-c1ccccc1)n2C [Example 145, 5-{4-[(1,5-dimethyl-2-phenyl-1H-indol-3-yl)carbonyl]piperazin-1-yl}-N-[2-(4-hydroxyphenyl)ethyl]pyrazine-2-carboxamide hydrochloride]",–,–,–,55,64,–,–,–
"COc1cc2c(cc1OC)CN(C(=O)/C=C/c1c(-c3ccccc3)n(C)c3ncc(C)cc13)CC2 [Example 123, 2-[(2E)-3-(1,5-dimethyl-2-phenyl-1H-pyrrolo[2,3-b]pyridin-3-yl)prop-2-enoyl]-6,7-dimethoxy-1,2,3,4-tetrahydroisoquinoline hydrochloride]",–,–,–,55,125,–,–,–
"CC(=O)OCCN(Cc1ccccc1)C(=O)c1cnc(N2CCN(C(=O)c3c(-c4ccccc4)n(C)c4ccc(C)cc34)CC2)cn1 [Example 125, N-benzyl-N-[(5-{4-[(1,5-dimethyl-2-phenyl-1H-indol-3-yl)carbonyl]piperazin-1-yl}pyrazin-2-yl)carbonyl]aminoethyl acetate]",–,–,–,52,91,–,–,–
"COC(=O)c1ccc(-c2c(/C=C/C(=O)N3CCc4cc(OC)c(OC)cc4C3)c3cc(C)ccc3n2C)cc1 [Example 142, 2-{(2E)-3-[1,5-dimethyl-2-(4-carbomethoxyphenyl)-1H-indol-3-yl]prop-2-enoyl}-6,7-dimethoxy-1,2,3,4-tetrahydroisoquinoline]",–,–,–,65,130,–,–,–
"Cn1c(-c2ccc3c(c2)OCO3)c(/C=C/C(=O)N(CCCCO)Cc2ccccc2)c2ccccc21 [Example 116, (2E)-N-(4-hydroxybutyl)-N-benzyl-3-[1-methyl-2-(3,4-methylenedioxyphenyl)-1H-indol-3-yl]acrylamide]",–,–,–,–,76,168,–,–
"Cc1ncsc1CCNC(=O)c1cnc(N2CCN(C(=O)c3c(-c4ccccc4)n(C)c4ccc(F)cc34)CC2)cn1 [Example 147, 5-{4-[(5-fluoro-1-methyl-2-phenyl-1H-indol-3-yl)carbonyl]piperazin-1-yl}-N-[2-(4-methyl-1,3-thiazol-5-yl)ethyl]pyrazine-2-carboxamide dihydrochloride]",–,–,–,29,59,–,–,–
"Cn1c(-c2ccccc2)c(/C=C/C(=O)N(CCc2cccs2)CC(=O)O)c2cccnc21 [Example 137, N-[(2E)-3-(1-methyl-2-phenyl-1H-pyrrolo[2,3-b]pyridin-3-yl)prop-2-enoyl]-N-[2-(2-thienyl)ethyl]aminoacetic acid]",–,–,–,38,72,–,–,–
"Cc1ccc2c(c1)c(C(=O)N1CCN(c3cnc(C(=O)N(C)[C@@H](Cc4ccccc4)C(=O)O)cn3)CC1)c(-c1ccccc1)n2C [Example 132, N-methyl-N-[(5-{4-[(1,5-dimethyl-2-phenyl-1H-indol-3-yl)carbonyl]piperazin-1-yl}pyrazin-2-yl)carbonyl]-(S)-phenylalanine]",–,–,–,67,122,–,–,–
"Cn1c(-c2ccccc2)c(/C=C/C(=O)NCC2CN(Cc3ccc(F)cc3)CCO2)c2ccccc21 (centres unmarked) [Example 30, (2E)-N-{[4-(4-fluorobenzyl)morpholin-2-yl]methyl}-3-(1-methyl-2-phenyl-1H-indol-3-yl)acrylamide hydrochloride]",–,–,–,41,94,148,–,–
"COc1cc2c(cc1OC)CN(C(=O)/C=C/c1c(-c3ccccc3)n(C)c3cnccc13)CC2 [Example 130, 2-[(2E)-3-(1-methyl-2-phenyl-1H-pyrrolo[2,3-c]pyridin-3-yl)prop-2-enoyl]-6,7-dimethoxy-1,2,3,4-tetrahydroisoquinoline hydrochloride]",–,–,–,92,157,–,–,–
"Cc1ncsc1CCNC(=O)c1cnc(N2CCN(C(=O)c3c(-c4ccccc4)n(C)c4ccc(Br)cc34)CC2)cn1 [Example 144, 5-{4-[(5-bromo-1-methyl-2-phenyl-1H-indol-3-yl)carbonyl]piperazin-1-yl}-N-[2-(4-methyl-1,3-thiazol-5-yl)ethyl]pyrazine-2-carboxamide hydrochloride]",–,–,–,78,85,–,–,–
